In ChEMBL document CHEMBL6134863, “Novel Mitochondria-Targeted Asymmetric Heptamethine Cyanine Dye for Cancer Targeted NIR Imaging and Potent Necrosis and Senescence Induction with Prolonged Retention” (J Med Chem, 2025):
Calls of active or inactive are those of the source. The rule behind the calls is not given here.

What was measured:
[1] = Antioxidant activity of compound in presence of SO4; format: functional
[2] = Cytotoxicity against human Primary lung fibroblast assessed as decrease in cell viability up to 5 uM incubated for 24 hrs by CCK-8 assay; format: toxicity, cell-based
[3] = Antioxidant activity of compound in presence of HCO3-; format: functional
[4] = Drug uptake in human NCI-H226 cells assessed as increase in green fluorescence intensity at 5 uM incubated for 30 mins by F-actin staining staining based microscopic analysis; format: ADME, cell-based; settings: nci-h226, 0.5 h
[5] = Drug uptake in mouse 4T1 cells assessed as increase in green fluorescence intensity at 5 uM incubated for 30 mins by F-actin staining staining based microscopic analysis; format: ADME, cell-based; settings: 4t1, 0.5 h
[6] = Cytotoxicity against human Primary lung fibroblast assessed as decrease in cell viability up to 10 uM incubated for 24 hrs by CCK-8 assay; format: toxicity, cell-based
[7] = Drug accumulation in BALB/c mouse tumor implanted with mouse 4T1 cells assessed as increase in fluorescence intensity at 0.5 mg/kg, iv measured at 48 hrs by imaging based analysis; format: ADME, organism-based, Neoplasm; settings: in vivo
[8] = Antioxidant activity of compound in presence of ROS; format: functional
[9] = Antioxidant activity of compound in presence of TBHP; format: functional
[10] = Drug localization in mitochondria of human NCI-H226 cell by MitoTracker Red based NIR confocal microscopic analysis; format: ADME
[11] = Photostability of compound in DMSO-H2O incubated for 1 hr irradiated with deuterium lamp by absorbance based analysis; format: physicochemical; settings: read-out: Stability
[12] = Antioxidant activity of compound in presence of RNS; format: functional
[13] = Drug uptake in human NCI-H226 cells assessed as increase in red fluorescence intensity at 5 uM incubated for 30 mins by CY7 staining based microscopic analysis; format: ADME, cell-based; settings: nci-h226, 0.5 h
[14] = Antioxidant activity of compound in presence of Glutathione; format: functional
[15] = Antioxidant activity of compound in presence of ONOO-; format: functional
[16] = Solubility of compound in DMSO-H2O; format: physicochemical
[17] = Stability of compound in DMSO-H2O incubated for 150 mins by absorbance based analysis; format: physicochemical; settings: 2.5 h
[18] = Antioxidant activity of compound in presence of HSO3-; format: functional
[19] = Antioxidant activity of compound in presence of […]; format: functional
[20] = Antioxidant activity of compound in presence of Fe3+; format: functional
[21] = Stability of compound in DMSO-H2O incubated for 1 hr by absorbance based analysis; format: physicochemical
[22] = Drug uptake in human NCI-H226 cells assessed as increase in fluorescence intensity incubated for 24 hrs by fluorescence based microscopic analysis; format: ADME, cell-based; settings: nci-h226, 24 h
[23] = Antioxidant activity of compound in presence of Br-; format: functional
[24] = Drug uptake in mouse 4T1 cells assessed as increase in red fluorescence intensity at 5 uM incubated for 30 mins by CY7 staining based microscopic analysis; format: ADME, cell-based; settings: 4t1, 0.5 h
NCI-H250 = experiment: Antitumor activity against human […] cells xenografted in BALB/c mouse assessed as tumor growth inhibition 0.5 mg/kg, iv measured for 5 days; format: functional, organism-based; settings: time 5.0 day
[25] = Antioxidant activity of compound in presence of Ca2+; format: functional
[26] = Antioxidant activity of compound in presence of CO3; format: functional
[27] = Antioxidant activity of compound in presence of HCHO; format: functional
[28] = Antioxidant activity of compound in presence of ClO-; format: functional
4T1 = experiment: Antitumor activity against mouse 4T1 cells implanted in BALB/c mouse assessed as tumor growth inhibition 5 mg/kg, iv measured for 11 days; format: functional; settings: 4T1, 264 h, time 11 day, read-out: TGI
[29] = Drug accumulation in tumor to muscle of BALB/c mouse implanted with mouse 4T1 cells at 0.5 mg/kg, iv measured at 4 to 168 hrs; format: ADME, organism-based; settings: in vivo, time 4-168 hrs
[30] = Antioxidant activity of compound in presence of NO2; format: functional
NCI-H226 = experiment: Cytotoxicity against human NCI-H226 assessed as decrease in cell viability up to 10 uM incubated for 24 hrs by CCK-8 assay; format: functional, cell-based
[31] = Drug accumulation in BALB/c mouse tumor xenografted with human NCI-H520 cells assessed as increase in fluorescence intensity at 0.5 mg/kg, iv measured at 96 hrs by imaging based analysis; format: ADME, organism-based, Neoplasm; settings: in vivo
[32] = Antioxidant activity of compound in presence of OH; format: functional
[33] = Antioxidant activity of compound in presence of RSS; format: functional
[34] = Distribution coefficient, logD of compound; format: physicochemical; settings: octanol/water
[35] = Antioxidant activity of compound in presence of Cl-; format: functional
[36] = Antioxidant activity of compound in presence of L-Cysteine; format: functional
[37] = Partition coefficient, logP of compound; format: physicochemical; settings: octanol/water
[38] = Toxicity in BALB/c mouse implanted with mouse 4T1 cells assessed as survival rate at 5 mg/kg, iv measured for 11 days; format: organism-based; settings: in vivo, time 11 day
[39] = Antioxidant activity of compound in presence of H2O2-; format: functional
[40] = Ratio of drug level in tumor to muscle of BALB/c mouse implanted with mouse 4T1 cells at 0.5 mg/kg, iv measured at 12 to 24 hrs; format: ADME, organism-based; settings: in vivo, time 12-24 hrs
[41] = Antioxidant activity of compound in presence of NH4+; format: functional
NIH3T3 = experiment: Cytotoxicity against mouse 3T3 cells assessed as decrease in cell viability up to 5 uM incubated for 24 hrs by CCK-8 assay; format: toxicity, cell-based; settings: nih3t3, 24 h

For `CCN1/C(=C/C=C2\CCCC(/C=C/C3=[N+](CCCOc4ccc(C(=O)O)cc4)c4ccccc4C3(C)C)=C2Cl)C(C)(C)c2ccccc21.[Br-]`, the Activity [1] was “Active”, the Activity [2] was “Non-toxic” and the Activity [3] was “Active”. For the same compound, the Drug uptake [4] was “Active”, the Drug uptake [5] was “Active” and the Activity [6] was “Non-toxic”. The Drug uptake [7] was “Active”, the Activity [8] was “Active” and the Activity [9] was “Active”. The Drug uptake [10] was “Active”, the remaining at 1 h [11] was 96.9% and the Activity [12] was “Active”. For the same compound, the Drug uptake [13] was “Active”, the Activity [14] was “Active” and the Activity [15] was “Active”. For the same compound, the solubility [16] was 170 µg/mL, the Stability [17] was “Stable” and the Activity [18] was “Active”. The Activity [19] was “Active”, the Activity [20] was “Active” and the Stability [21] was “Stable”. For the same compound, the Drug uptake [22] was “Active”, the Activity [23] was “Active” and the Drug uptake [24] was “Active”. For the same compound, the TGI (NCI-H250) was “Active”, the Activity [25] was “Active” and the Activity [26] was “Active”. For the same compound, the Activity [27] was “Active”, the Activity [28] was “Active” and the inhibition in vivo at 5 mg/kg (4T1) was ~60%. The Drug uptake [29] was “Active”, the Activity [30] was “Active” and the Activity (NCI-H226) was “Active”. For the same compound, the Drug uptake [31] was “Active”, the Activity [32] was “Active” and the Activity [33] was “Active”. The logD [34] was 4.34, the Activity [35] was “Active” and the Activity [36] was “Active”. The logP [37] was 6.05, the survival at 264 h [38] was 100% and the Activity [39] was “Active”. The Ratio [40] was > 5, the Activity [41] was “Active” and the Activity (NIH3T3) was > 80%.
With `CCCN1/C(=C/C=C2\CCCC(/C=C/C3=[N+](CCCOc4ccc(C(=O)O)cc4)c4ccccc4C3(C)C)=C2Cl)C(C)(C)c2ccccc21.[Br-]` the Activity [1] was “Active”, the Activity [2] was “Non-toxic” and the Activity [3] was “Active”. For the same compound, the Drug uptake [4] was “Not_active”, the Drug uptake [5] was “Not_active” and the Activity [6] was “Non-toxic”. For the same compound, the Activity [8] was “Active”, the Activity [9] was “Active” and the Drug uptake [10] was “Active”. For the same compound, the remaining at 1 h [11] was 89.4%, the Activity [12] was “Active” and the Drug uptake [13] was “Not_active”. The Activity [14] was “Active”, the Activity [15] was “Active” and the solubility [16] was 170 µg/mL. For the same compound, the Stability [17] was “Stable”, the Activity [18] was “Active” and the Activity [19] was “Active”. The Activity [20] was “Active”, the Drug uptake [22] was “Active” and the Activity [23] was “Active”. For the same compound, the Drug uptake [24] was “Not_active”, the TGI (NCI-H250) was “Active” and the Activity [25] was “Active”. The Activity [26] was “Active”, the Activity [27] was “Active” and the Activity [28] was “Active”. The Drug uptake [29] was “Active”, the Activity [30] was “Active” and the Activity (NCI-H226) was “Active”. For the same compound, the Drug uptake [31] was “Active”, the Activity [32] was “Active” and the Activity [33] was “Active”. For the same compound, the logD [34] was 4.63, the Activity [35] was “Active” and the Activity [36] was “Active”. The logP [37] was 6.21, the Activity [39] was “Active” and the Ratio [40] was > 5. The Activity [41] was “Active” and the Activity (NIH3T3) was > 80%.
